Experimental data published in patent US20240043539A1, “METHODS OF INDUCING AN IMMUNOMODULATORY TUMOR RESPONSE” (CORNELL UNIVERSITY, priority 2020, published 2024).

Experiments:
Format in all cases: cell-based, mouse
[1] = system: oTME macrophages (BMDMs); assay: γ-secretase inhibition: Ki67 in M2-educated (oTME) macrophages, flow cytometry
Description: BMDMs were co-cultured with oTME cells for 7 days and treated either with CompE ([…]) or DMSO as a control for additional 10 days. Cells were analyzed by flow cytometry for Ki67, F4/80, and CD11b. Data (n=3) are shown as mean±SD., 2-way ANOVA test, Bonferroni-corrected. FIG. 17D is a pre-clinical study design. […] Tumor sizes were recorded by caliper and shown as mean±SD., 2-way ANOVA test, Bonferroni-corrected. At the trial endpoint, lungs were collected and stained with H&E (right). […] At study endpoint, tumor transplants from (FIG. 17E) were scored for Ki67 in macrophages and in tumor cells (PyMT; mT^neg CD45^neg). Data are shown as mean±SD., 2-way ANOVA test, Bonferroni-corrected. Macrophage abundance quantified as percent of CD45+ cells. Data are shown as mean±SD., Mann-Whitney test. […]

[2] = system: Arg1-EYFP BMDMs co-cultured with oTME cells
Description: FIGS. 6A-6H show a genome-wide pooled M2-like education screen in primary macrophages. […] Gene hits in EYFP″g BMDMs are highlighted in red. Distribution of LFC values (red lines) across all four sgRNAs of select gene targets (right). […] Arg1-EYFP BMDMs were co-cultured with oTME cells for 7 days, and then were treated with Abemaciclib (5, 10 μM) or DMSO for additional 7 days and analyzed by flow cytometry for EYFP (n=4 replicates). Data are shown as mean±SD., 2-tailed unpaired Student's t-test. […] Arg1-EYFP BMDMs were treated for 7 days with a cytokines cocktail consists of IL-4 (10 ng/mL), IL-13(80ng/mL), M-CSF(10 ng/mL) or with M-CSF alone as control (supplemented every 3 days). Cells were then treated with Abemaciclib (5 μM) or DMSO for additional 7 days and analyzed by flow cytometry for EYFP (n=3 replicates). Data are shown as mean±SD., 2-tailed unpaired Student's t-test. […] Cells then treated with PF-431369 (5 uM) or DMSO for additional 7 days. On day 14, cells were fixed and stained for Arg1 and CD206 and analyzed by flow cytometry. (n=3 replicates). Data are shown as mean±SD., 2-tailed unpaired Student's t-test. […]
Flow Cytometry and Fluorescence-Activated Cell Sorting (FACS): Flow cytometry data were collected using BD LSRFortessa, BD FACSCanto II, and BD FACSAria III was used for FACS-sort. […]

[3] = system: IL-4/IL-13-treated macrophages (BMDMs); assay: Arg1 expression in IL-4/IL-13-treated macrophages (absence of oTME cells), flow cytometry
[4] = system: BMDMs plated with oTME cells; assay: EdU incorporation in macrophages following 48 hrs oTME education in the presence of Tyk2 inhibitors; details: BMS-986165, 10 μM vs DMSO, EdU 10 μM
Description: FIGS. 3A-3H show the time course single-cell RNAseq analysis of macrophage TME-education. […] Cells were profiled after 2 and 10 days with the 10× Chromium single-cell RNA-seq platform. […] The figure legend is the same as FIG. 3B. FIG. 3D is a heatmap showing macrophage education expression dynamics of M-CSF-treated (n=214), early (day 2, n=235), late (day 10, n=301) genes. The cells are sorted and split into 20 equal-width bins by the education pseudo-time, average expression level (row-wise Z-score; color scale) of education signature genes (rows) across each bin (columns) is shown. The figure legend is the same as FIG. 3B. […] Genes are dotted and colored by logFC levels (color scale), the size of each dot represents the difference in the fraction of detection between the two groups. The p values were determined by Wilcoxon Rank Sum test. Vertical dotted lines represent ±0.75 logFC. Horizontal dotted lines represent p value of 0.01 (−log10 scale). […] Each dot represents an average of cells in 50 equal-width bins on the education pseudo-time axis, same as FIG. 3E. […] EdU incorporation was analyzed by flow cytometry (n=4 replicates). […]
EdU Incorporation: Cells were incubated with 10μM EdU (5-ethynyl-2′-deoxyuridine) without changing conditioned growth medium for the required duration and analyzed by flow cytometry according to the manufacturer's instructions (A10202; Thermo Fisher Scientific). […]

SMILES: C[C@H](NC(=O)Cc1cc(F)cc(F)c1)C(=O)N[C@H]1N=C(c2ccccc2)c2ccccc2N(C)C1=O [Compound-E]
- reduction in Ki67 positivity ([1]; 7 days co-culture, then CompE or DMSO for additional 10 days): 89.6±3.8%
- expression of F4/80 ([1]; oTME macrophages after treatment): increased

SMILES: CN(c1ccccc1CNc1nc(Nc2ccc3c(c2)CC(=O)N3)ncc1C(F)(F)F)S(C)(=O)=O [PF-431396]
- Arg1 expression ([2]; oTME macrophages, 10 μM or DMSO for additional 7 days, EYFP by flow cytometry): robust suppression
- Arg1 expression ([3]; IL-4/IL-13-treated macrophages, 5 uM or DMSO for additional 7 days, stained for Arg1 and CD206): robust suppression

SMILES: [2H]C([2H])([2H])NC(=O)c1nnc(NC(=O)C2CC2)cc1Nc1cccc(-c2ncn(C)n2)c1OC [Tyk2 inhibitors, 6-(cyclopropanecarbonylamino)-4-[2-methoxy-3-(1-methyl-1,2,4-triazol-3-yl)anilino]-N-(trideuteriomethyl)pyridazine-3-carboxamide]
- EdU incorporation in oTME macrophages [4]: significantly decreased

SMILES: CCN1CCN(Cc2ccc(Nc3ncc(F)c(-c4cc(F)c5nc(C)n(C(C)C)c5c4)n3)nc2)CC1 [abemaciclib, N-[5-[(4-ethylpiperazin-1-yl)methyl]pyridin-2-yl]-5-fluoro-4-(7-fluoro-2-methyl-3-propan-2-ylbenzimidazol-5-yl)pyrimidin-2-amine]
- Arg1-EYFP expression ([2]; oTME-educated Arg1-EYFP BMDMs, Abemaciclib (5, 10 μM) or DMSO for additional 7 days): dose-dependent reduction
- Arg1-EYFP expression ([3]; IL-4/IL-13/M-CSF for 7 days, then Abemaciclib (5 μM) or DMSO for additional 7 days): suppressed
